This assay relates to endocervical adenocarcinoma KB-3.1. The experiment in a line: 5-day MTT cytotoxicity assay. The format is cell-based, human. The conditions noted are these: KB-3.1, 5-day MTT assay. The procedure: Cytotoxicity of compounds 1‒5 was initially determined against two cancer cell lines (mouse fibroblasts L-929 and human endocervical adenocarcinoma KB-3.1) by using a 5-day MTT assay according to an established procedure.
In 96-well flat-bottom microtiter plates, cell lines with serial dilution of the test compounds (final range: 37 to 0.6 × 10^−3 µg/mL) were incubated for five days. After five days, the cells were dyed using 3-(4,5-dimethyl-2-thiazolyl)-2,5-diphenyl-2H-tetrazolium bromide (MTT), which is only converted to its purple formazan derivative by living cells. The half-maximum inhibitory concentration (IC50 in µM) was calculated via the colorimetric method in a microplate reader using absorption at 595 nm. In addition, when an inhibition with an IC50 < 50 µM was observed, other cell lines were subjected to the test compounds to evaluate their further cytotoxicity: PC-3 (human prostate adenocarcinoma), SK-OV-3 (human ovary adenocarcinoma), MCF-7 (human breast adenocarcinoma), A-431 (human squamous carcinoma), and A549 (human lung carcinoma). A detailed procedure, including the colorimetric method to determine the cell viability, can be found in the SI.
Protocol: Cytotoxicity Assay
The assay was co nducted in 9 6-well flat -botto m microtiter plates using the parameters summarised in T able S2 and as described in [S2]. Cell l ines L-929 and KB-3.1 were incubated at 37 °C under 10 % CO2 in Gibco™ DMEM medium (T her mo Fisher Scientific, Waltham, M A, USA) supplemented with 10 % FBS. A microtiter plate was filled wit h 120 μ L o f this suspensio n (50,000/mL) in each well. Seperatel y, a nother microti ter plate wa s filled wit h 100 μL of gro wth medium in each well. Then, 50 μ L of the test compound solutions (1 mg/mL) were given to wells of the first column in two replicates (one compound per row). Cells without additives and MeOH were used as nega tive controls. Starting from the first column, 50 μ L of the solutions were gradually transferred to the next column, the contents thoroughly mixed, and 50 μL transferred to the following column. This created a serial dilution of the test compounds ranging from 333 μ g/mL to 1.9×10-3 μg/ mL. T he re mai ni ng 50 μ L after column twelve were discarded. From this microtiter plate, 60 μ L of the solutions fro m 111 μ g/mL to 1.9×10-3 μg/mL we r e give n to t he firs t p late co ntai ni ng 1 2 0 μ L of the cell suspensions (i.e. the highest co ncentration 333 μ g/ mL wa s no t used). T his resul ted in fi nal compo und concentratio ns rangi ng fro m 37 μ g/mL to 0.6×10-3 μg/ mL. After 5 days o f incubatio n under the aforementioned incubatio n conditions, the half maximu m inhibitory co ncentrations (IC50) were deter mined using a colorimetric tetrazolium d ye MT T assa y [S3]. For this, 20 μ L of a 5 mg/mL solution of 3-(4,5-dimethyl-2 -thiazolyl) -2,5-diphenyl-2H-tetrazolium br omide (MTT) were added to each well and incubated for two hours at 37 °C. T hen, the microtiter plate was ce ntrifuged (3,000 rpm, 5 min) and the supernatant removed by holding the plate upside-down and gentle shaking. Afterwards, the wells were washed using 100 μ L of phosphate buffered saline (PBS). T he plate was a gain ce ntrifuged a nd the supernata nt re mo ved as described before.
T hen, 1 0 0 μ L of an isopropanol:HCl solution (1L isopropanol+4 mL HCl 37 % w/v) were added to the wells. After incubating for 10 min at ambient temperature, the absorption of the wells at 595 nm was measured with an Infinite® 200 Pro microplate reader (TECAN, Männedorf, Schweiz). The absorption values of the cells without additives were averaged and set to 100 % cell viability. Then, the means of absorption of the two compound replicates were set in relation to the blank media. T hese percentage values were plotted against the concentratio n range (37 μ g/mL to 0.6×10−3 μg/ mL). T he IC50 value was r ead fro m the plot (in μ g/ mL) a nd the uni ts conversed […]
to μM. […]

Read-outs that look alike come from different tables or passages of the source.

This is an account of results in PMC8224775, “Five Tetramic Acid Derivatives Isolated from the Iranian Fungus Colpoma quercinum CCTU A372” (Biomolecules, 2021).

Take `CCC(C(=O)O)C1C(C)=CC2CC(C)CCC2C1(C)C(O)=C1C(=O)C(C)N(C)C1=O` (centres unmarked) [compound 2, Colposetin B]: where the note is “Homo sapiens, KB 3-1, 120 h, read-out: IC50”, the IC50 turned out to be 5.7 µM.
As to `CC(C=CCC(C)CCC=C(C)C(=O)C1=C(O)C(C)N(C)C1=O)=CC(C)C(O)C(=O)O` (centres unmarked) [compound 4, Colpomenoic acid A], the half-maximal inhibitory concentration (IC50) entry is given as “not active”.
Still for that read-out and setting: under `CC1=CC2CC(C)CCC2C2(C)C(=O)OC(C(=O)O)C(C)C12` (centres unmarked) [compound 3, Colposetin C] stands “not active”; under `CC(C=CCC(C)C=CC=C(C)C(=O)C1=C(O)C(C)N(C)C1=O)=CC(C)C(O)C(=O)O` (centres unmarked) [compound 5, Colpomenoic acid B], “not active”.
On the same count and under the same terms, with `CC(=O)OC(C(=O)O)C(C)C1C(C)=CC2CC(C)CCC2C1(C)C(O)=C1C(=O)C(C)N(C)C1=O` (centres unmarked) [compound 1, Colposetin A] the entry was “not active”.
